Measured values from patent US20140128352A1, “COMPOUNDS AND METHODS FOR MODULATING MITOCHONDRIAL METABOLISM AND REACTIVE OXYGEN SPECIES PRODUCTION” (Buck Institute for Research on Aging, priority 2012, published 2014).
“Also recorded” adds a separate entry of the source.

Experiments:
[1] = system: mitochondrial respiration; experiment: Mitochondrial respiration, Seahorse XF24; format: biochemical, rat; conditions: complex I, complex II or glycerol phosphate substrates; states 2, 3, 4
Method: Measurements of ΔΨm described in the previous examples were made under “resting” conditions in which substrates were present but ΔΨm was not coupled to ATP (energy) production by mitochondria. To test the effect of candidate compounds on mitochondrial bioenergetics under energy producing conditions, respiratory coupling parameters were measured in isolated mitochondria in microplate format using a Seahorse XF 24 analyzer (Rogers, G. et al. (2011) High Throughput Microplate Respiratory Measurements Using Minimal Quantities of Isolated Mitochondria. PLoS One. 6(7): e21746). […] ATP synthesis was terminated by injection of oligomycin (0.5 μg/mL) and leak-dependent respiration was measured (state 4o). Finally, the complex III inhibitors antimycin A (2.5 uM) and myxothiazol (2 μM) were injected to terminate respiration. Respiratory profiles were evaluated for signs of inhibition (decreased states 2, 3, or 4o) or uncoupling (increased states 2 or 4o) by candidate compounds. Seahorse XF experiments were performed in a mannitol-sucrose based buffer as described in Rogers et al. 2011. For respiration experiments driven by glycerol phosphate, this buffer was supplemented with CaCl2 to a final free concentration of 250 nM.

site IF = molecular target: T1, site IF (Rattus norvegicus, UniProt Q5XIH3); experiment: Retest of IF ROS production (expanded microplate panel); format: biochemical
T1 construct: freshly isolated muscle mitochondria were assayed; from tissue; host or cells: rat skeletal muscle mitochondria (Wistar, Harlan Laboratories)
Method: (§1) Compounds identified as site-selective hits as well as structural analogs were re-sourced from ChemBridge and dissolved in DMSO as 80 mM stocks. Master Titration Plates were prepared manually by serially diluting 80 mM compound stocks between 0.08 and 80 mM on 96-well microplates. Four compounds were titrated in duplicate on each plate. Additional DMSO controls were interspersed across these plates to serve as local normalization controls during analysis since two-way median polishing was not appropriate. Just prior to use, compounds were diluted 100-fold with standard buffer (10X). The same known inhibitor positive controls were included on each plate as during high-throughput screening. The five core ROS assays and single ΔΨm assay were carried out as in the initial high-throughput screen. In addition, several assays were included to help validate the specificity of the compounds for a given site of production. […] The use of different substrates was designed to reveal compounds that disrupt mitochondrial function in a substrate specific manner. […] Most frequently, these changes involved the use of different substrates to supply electrons from an alternative entry point in the chain. If a site of ROS production is being targeted selectively by a compound, then in many cases the supply of electrons should not influence the effectiveness of this compound at suppressing ROS production. […] The fluorescence values in each well were scaled in relation to the intra-plate DMSO and known inhibitor controls as in the high-throughput screen except that median values for local interspersed DMSO wells (3-6 wells) were used rather than just the 8 DMSO wells in columns 1 and 12. This normalization was applied in place of the two-way median polish used during high-throughput screening to minimize row and column effects. […] At this stage, strong candidates were not necessarily excluded from further testing if subtle off-target effects were observed (e.g. loss of specificity or signs of general inhibition at the highest concentrations). Rather, these candidates were often pursued for more detailed mechanistic studies with the expectation that subsequent structure activity analysis would provide insight into which structurally related compounds would provide the optimal specificity for a given site of production.

site IIIQo = molecular target: T2, site IIIQo (Rattus norvegicus, UniProt P00159+P20788); experiment: Retest of IIIQo ROS production (expanded microplate panel); format: biochemical
T2 construct: freshly isolated muscle mitochondria were assayed; from tissue; host or cells: rat skeletal muscle mitochondria (Wistar, Harlan Laboratories)
Method: as §1

[2] = system: mitochondrial membrane potential (ΔΨm); experiment: Retest ΔΨm assays (different substrates, with and without nigericin); format: biochemical, rat; conditions: various substrates
Method: The five core ROS assays and single ΔΨm assay were carried out as in the initial high-throughput screen. In addition, several assays were included to help validate the specificity of the compounds for a given site of production. […] The use of different substrates was designed to reveal compounds that disrupt mitochondrial function in a substrate specific manner. […] Most frequently, these changes involved the use of different substrates to supply electrons from an alternative entry point in the chain. If a site of ROS production is being targeted selectively by a compound, then in many cases the supply of electrons should not influence the effectiveness of this compound at suppressing ROS production. […] Candidate compounds that remained site-selective following robotics assisted retesting were subsequently tested for effects on ROS production and ΔΨm with a Varian Cary Eclipse fluorimeter (excitation 550 nm, emission at 590 nm). This experimental format allows kinetic measurements of ROS production and ΔΨm with more accurate temperature control, sample stirring, and background correction. […] Conditions were generally as described for the various microplate assays with the following exceptions: HRP was increased to 5 units/mL, Amplex UltraRed was increased to 50 μM, temperature was always 37° C., samples were continuously stirred, and baseline rates of fluorescence change in the absence of substrate were acquired prior to their addition. Example protocols for cuvette based measurement of site IQ and site IIIQo ROS production are described in Affourtit et al., 2012. […] Biochim. Biophys. Acta. 1777(5): 397-403. An additional advantage of the kinetic cuvette based assays was the ability to perform inline additions to monitor the relative effect of a test compound against multiple conditions in the same cuvette. Therefore, the selectivity of a compound for one site of ROS production can be monitored by adding substrates and select known inhibitors in defined sequences to alternately provide and trap electrons at various sites in the chain. […]

T1 sequence (Q5XIH3 21-464 limits assumed): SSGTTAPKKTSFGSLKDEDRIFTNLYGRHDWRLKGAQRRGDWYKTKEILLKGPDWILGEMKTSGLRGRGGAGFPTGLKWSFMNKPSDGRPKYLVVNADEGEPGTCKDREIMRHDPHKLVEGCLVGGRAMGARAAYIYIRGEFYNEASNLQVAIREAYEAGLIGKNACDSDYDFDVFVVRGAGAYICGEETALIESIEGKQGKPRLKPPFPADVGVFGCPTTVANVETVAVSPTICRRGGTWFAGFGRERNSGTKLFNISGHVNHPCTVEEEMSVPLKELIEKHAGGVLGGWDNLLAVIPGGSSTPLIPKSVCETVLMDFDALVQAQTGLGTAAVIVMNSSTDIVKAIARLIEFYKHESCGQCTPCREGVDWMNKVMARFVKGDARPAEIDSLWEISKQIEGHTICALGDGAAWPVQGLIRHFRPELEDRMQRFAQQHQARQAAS

Row | Compound | effect on mitochondrial respiration [1] | effect on IF ROS and selectivity for site IF (site IF) | effect on IIIQo ROS (site IIIQo) | effect on ΔΨm [2] | other results
1 | O=[N+]([O-])c1ccc(Oc2ccc(S(=O)(=O)NC3CCCCC3)cc2)cc1 [Compound 4] | did not significantly inhibit or show signs of uncoupling respiration under any conditions except at 80 uM; also recorded: does not inhibit forward electron flow through CI | – | – | – | –
2 | O=C(O)C1CCCCC1C(=O)NC1CCCCC1 (stereo not shown) [Compound 19] | inhibits ADP-stimulated respiration with complex I substrates; also recorded: no signs of uncoupling but did reveal a progressive inhibition of state 3 respiration (ATP producing) only with CI substrates | selectively lowers ROS production from site IF | unaffected until the highest concentration tested (80 μM) | – | inhibition at 2.5 µM (site IF; 2.5 μM): 24%
3 | COc1cc(CN(CCN(C)C)Cc2ccccc2)cc(OC)c1 [Compound 31] | – | improved selectivity toward the IF site in combination with a lowered effect on ΔΨm | – | – | –
4 | Cc1ccc(C)c(CN(CCCN(C)C)CCCN(C)C)c1 [Compound 32] | increases ADP-stimulated respiration specifically with complex I substrates; also recorded: significantly increased state 3 respiration specifically with CI substrates | selectively lowers ROS production from site IF; also recorded: further improved selectivity for IF without compromising ΔΨm | – | without any significant effects on membrane potential | –
5 | COc1ccc(Cl)cc1N(Cc1ccccc1)Cc1ccccc1 [Compound 34] | – | – | selectively lowers ROS production from site IIIQo independent of substrate concentration | a consistent increase in ΔΨm was observed independent of both substrate and ΔpH at 8 μM; also recorded: increases ΔΨm at 8 μM but collapses ΔΨm above this concentration | inhibition at 8 µM (site IIIQo; 8 μM, independent of substrate concentration): 60%
6 | CC1=CC(C)(C)N(Cc2ccc([N+](=O)[O-])cc2)c2ccccc21 [Compound 37] | did not uncouple state 2 respiration; also recorded: does not show signs of uncoupling state 2 respiration at high concentrations | – | lowers ROS from site IIIQo independent of substrate concentration | – | –
7 | O=C(O)CSc1cccc(C(=O)Nc2ccc(Br)cc2)c1 [Compound 47] | – | – | off-target effect on site IIIQo ROS | – | –
8 | O=C(O)CCC(=O)Nc1ccc(-c2nc3cc4ccccc4cc3[nH]2)cc1 [Compound 61] | – | – | – | increased off-target effect on ΔΨm in the absence of nigericin | –
